# Tests used:
# Assay type in all cases: cell-based, human
# Cyclin D1 = Cyclin D1 level by Western blot in PC-3 and LNCaP cells
# Protocol: Figure 4 Cell Cycle analysis in 8c-treated prostate cancer cells. (A) PC-3 and LNCaP cells were treated with compound 8c for 24 hours and cell cycle analysis was analyzed by flow cytometry using Propidium Iodide (PI). Percentage of cells in subG0, G1, S, and G2/M phases is indicated in the histogram. (B) Levels of Cyclin D1, p-p53, p53, p21 and cleaved Caspase 3 (17 kDa fragment) were determined by Western blot. Upper panel, representative Western blot of two different experiments. β-tubulin (β-Tub) serves as a loading control. Lower panel, the densitometric analyses of bands represented as the mean ± SD of the two different experiments. *p < 0.05 and **p < 0.01 compared with the control group by the Student’s t-test.
# There are many intracellular mechanisms whereby AMPK activation inhibits cell growth. […] To further investigate the mechanism underpinning the cell viability inhibitory effect of compound 8c, levels of Cyclin D1 were determined by Western blot in PC-3 and LNCaP cells.
# Cells were lysed in Lysis buffer (50 mM Tris pH 7.4, 0.8 M NaCl, 5 mM MgCl2, 0.1% Triton X-100) containing Protease Inhibitor and Phosphatase inhibitor Cocktails (Roche, Basel, Switzerland). Protein concentrations were measured by BioRad™ protein assay kit (Richmond, CA, USA). […] Films were analyzed by densitometry. […]
# Raptor = Raptor phosphorylation on Ser792 by Western blot in PC-3 and LNCaP cells; details: 25 µM
# Protocol: To further confirm the compound 8c-induced activation of AMPK, PC-3 and LNCaP cells were incubated with the compound for 1 h and 24 hours in the presence of the AMPK inhibitor Dorsomorphin. […] Accordingly, ACC phosphorylation was increased at 1 h and 24 h and prevented by Dorsomorphin in both cell lines. AMPK inhibits mTORC1 through phosphorylation of Raptor on two well-conserved serine residues (ser722 and ser792) inducing cell-cycle arrest in response to an energy stress. To further support the 8c-induced AMPK activation, we determined Raptor phosphorylation on Ser792 in prostate cells.
# Figure 5 AMPK activation by compound 8c in prostate cancer cells. (A) PC-3 and LNCaP cells were treated with vehicle, 25 µM compound 8c, 25 µM compound 8c + 5 μM Dorsomorphin (8c + D) or 5 μM Dorsomorphin (D), for 1 hour or 24 hours and levels of the phosphorylated AMPK (pAMPK), phosphorylated ACC (pACC), phosphorylated Raptor (pRaptor) forms and HIF1α were determined by Western blot. Upper panel, representative Western blot of three different experiments. β-tubulin (β-Tub) serves as a loading control. […] (B) Cell viability monitored by MTT assay in PC-3 and LNCaP cells treated with vehicle, 25 µM and 50 μM compound 8c alone or in the presence of 5 μM Dorsomorphin or transfected with control siRNA (siC) or α1AMPK-selective siRNA (siAMPK). […]
# PC-3 and LNCaP cells = assay: MTT cell viability in PC-3 and LNCaP cells under AMPK inhibition or knocking down; details: α1AMPK-selective siRNA
# Protocol: Figure 5 AMPK activation by compound 8c in prostate cancer cells. (A) PC-3 and LNCaP cells were treated with vehicle, 25 µM compound 8c, 25 µM compound 8c + 5 μM Dorsomorphin (8c + D) or 5 μM Dorsomorphin (D), for 1 hour or 24 hours and levels of the phosphorylated AMPK (pAMPK), phosphorylated ACC (pACC), phosphorylated Raptor (pRaptor) forms and HIF1α were determined by Western blot. Upper panel, representative Western blot of three different experiments. β-tubulin (β-Tub) serves as a loading control. Lower panel, densitometric analyses of bands represented as the mean of the ratio pAMPK/AMPK or pACC/ACC. (B) Cell viability monitored by MTT assay in PC-3 and LNCaP cells treated with vehicle, 25 µM and 50 μM compound 8c alone or in the presence of 5 μM Dorsomorphin or transfected with control siRNA (siC) or α1AMPK-selective siRNA (siAMPK). (C) LNCaP cells were treated with vehicle, 25 µM compound 8c, 25 µM compound 8c + 5 μM Dorsomorphin (8c + D) or 5 μM Dorsomorphin (D), for 24 hours and levels of Androgen Receptor (AR), Prostate specific antigen (PSA) and Prostate specific membrane antigen (PSMA) were determined by Western blot.Values were normalized with the control and represent the mean ± SD of at least three independent experiments. *p < 0.05 and **p < 0.01 compared to control and ^#p < 0.05 and ^##p < 0.01 compared with 8c-treated group by the Student’s t-test. […]
smiles,measurement,setting,value
"O=C1Nc2ccccc2C1(F)Cc1ccc(-c2ccccc2)o1 (stereo not drawn) [Compound 8c, 3-fluoro-3-((5-phenylfuran-2-yl)methyl)indolin-2-one]",Cyclin D1 level,Cyclin D1,marked decrease in Cyclin D1 level
same,Raptor phosphorylation on Ser792 (p-Raptor),Raptor,increase in p-Raptor
same,cell death with AMPK silencing by specific siRNA,PC-3 and LNCaP cells,prevented 8c-induced cell death

# Source: paper PMC5847527, “Identification of a novel 2-oxindole fluorinated derivative as in vivo antitumor agent for prostate cancer acting via AMPK activation” (Scientific Reports, 2018)
